The subject of the experiment is differentiated HL-60 cells. The format is cell-based, human. The settings on record: 72 h. The method, then: HEK-293 cells (American Type Culture Collection, Manassas, VA, USA) were maintained in DMEM (Thermo Fisher Scientific, Waltham, MA, USA) containing 10% FBS (Thermo Fisher Scientific) in a humidified atmosphere at 5% CO2 and 37 °C. Human acute leukemia-derived HL-60 cells (RIKEN Cell Bank, Ibaraki, Japan) were cultured in RPMI-1640 medium (Thermo Fisher Scientific) containing 10% FBS in a humidified atmosphere at 5% CO2 and 37 °C. HL-60 cells were treated with 500 μM dibutyryl-cAMP (Sigma-Aldrich, St. Louis, MO, USA) for 72 h to differentiate the cells into neutrophilic/granulocytic cells as described elsewhere. The ability of MCT-2-related peptides to activate HL-60 cells differentiated into neutrophilic/granulocytic cells was evaluated by stimulation of β-hexosaminidase secretion from the cells. Briefly, differentiated HL-60 cells were washed 3 times with ice-cold HEPES-buffered Hank’s solution (HBHS; 10 mM HEPES, 136.9 mM NaCl, 5.4 mM KCl, 1.2 mM CaCl2, 0.44 mM KH2PO4, 0.49 mM MgCl2, 0.41 mM MgSO4, 0.34 mM Na2HPO4, 5.5 mM glucose, 4.2 mM NaHCO3, and 0.1% BSA, pH 7.4). The cells were resuspended in HBHS at a density of 5.6 × 10^6 cells/mL, and DNase I (Sigma-Aldrich) and cytochalasin B (Sigma-Aldrich) were each added at a final concentration of 5 μg/mL. The cell suspension in each tube (5.0 × 10^5 cells/90 μL) was preincubated at 37 °C for 10 min and stimulated with 10 μL synthetic peptide solution at 37 °C for 10 min. The inhibitory effects of inhibitors against FPR1 [CysH (Sigma-Aldrich)] and FPR2 [PBP10 (Tocris Bioscience, Bristol, UK)] on β-hexosaminidase release induced by MCT-2 and its derivatives were also evaluated in the differentiated HL-60 cells; each cell suspension prepared as above (90 μL) was transferred to a tube (5.0 × 10^5 cells/tube) with 5 μL inhibitor solution for FPR1 (CysH) or FPR2 (PBP10). Each tube was then preincubated at 37 °C for 10 min and stimulated with 5 μL synthetic peptide solution at 37 °C for 10 min. After stimulation, 200 μL ice-cold reaction quenching buffer (25 mM Tris, 123 mM NaCl, and 2.7 mM KCl, pH 7.4) was added to each cell suspension to stop the reaction. Thereafter, these tubes were centrifuged at 4 °C and 2300× g for 1 min, and each supernatant was transferred into a new tube. β-Hexosaminidase activity in the supernatant was measured as described previously. Briefly, 90 μL supernatant was transferred to each well of a 96-well microtiter plate, and 60 μL of a substrate solution for β-hexosaminidase [10 mM p-nitrophenyl N-acetyl-β-D-glucosaminide (Sigma-Aldrich), 40 mM citrate, and 70 mM NaHPO4, pH 4.5] was added to initiate the enzyme reaction. After incubation of the plate at 37 °C for 1 h, 100 μL of 400 mM glycine (pH 10.7) was added to stop the reaction. The absorbance at 415 nm for the resulting p-nitrophenol and at 490 nm for the reference was measured using a microtiter plate reader (Viento XS; BioTek Instruments, Winooski, VT, USA). The ability of each peptide to induce β-hexosaminidase release was expressed as a percentage of enzyme secretion promoted by 10 μM MCT-2(1–15) that induced the maximum response for the elucidation of full or partial agonists to the activity of MCT-2(1–15) (Figure 2 and Figure 4, Table 2) or a percentage of the total enzyme activity, which was the enzyme activity released after disruption of the cells with 0.05% Triton X-100 (Figure 3).

As usually defined, the EC50 is the concentration that produces a half-maximal response.

Where a SMILES comes first, the peptide text is derived from it. The star is where a group is joined. For = O=C*

As for `CSCC[C@H](NC=O)C(=O)N[C@H](C(=O)N1CCC[C@H]1C(=O)N[C@@H](CCSC)C(=O)N[C@@H](CCCNC(=N)N)C(=O)O)[C@@H](C)O` [MCT-2(1–5)] (For-MTPMR-OH), the EC50 was determined as 26 µM.

Take `CSCC[C@H](NC=O)C(=O)N[C@H](C(=O)N1CCC[C@H]1C(=O)N[C@@H](CCSC)C(=O)N[C@@H](CCCNC(=N)N)C(=O)N[C@@H](CCCCN)C(=O)O)[C@@H](C)O` [MCT-2(1–6)] (For-MTPMRK-OH): the EC50 turned out to be 203 µM.

Molecule `CC[C@H](C)[C@H](NC(=O)[C@H](CCCCN)NC(=O)[C@H](CCCNC(=N)N)NC(=O)[C@H](CCSC)NC(=O)[C@@H]1CCCN1C(=O)[C@@H](NC(=O)[C@H](CCSC)NC=O)[C@@H](C)O)C(=O)O` [MCT-2(1–7)] (For-MTPMRKI-OH) had a half-maximal effective concentration (EC50) of 35.5 µM.

In the case of `CC[C@H](C)[C@H](NC(=O)[C@H](CCCCN)NC(=O)[C@H](CCCNC(=N)N)NC(=O)[C@H](CCSC)NC(=O)[C@@H]1CCCN1C(=O)[C@@H](NC(=O)[C@H](CCSC)NC=O)[C@@H](C)O)C(=O)N[C@@H](CC(N)=O)C(=O)O` [MCT-2(1–8)] (For-MTPMRKIN-OH), the response was half-maximal at 41.3 µM (EC50).

Consider `CC[C@H](C)[C@H](NC(=O)[C@H](CCCCN)NC(=O)[C@H](CCCNC(=N)N)NC(=O)[C@H](CCSC)NC(=O)[C@@H]1CCCN1C(=O)[C@@H](NC(=O)[C@H](CCSC)NC=O)[C@@H](C)O)C(=O)N[C@@H](CC(N)=O)C(=O)N1CCC[C@H]1C(=O)O` [MCT-2(1–9)] (For-MTPMRKINP-OH), for which the concentration giving a half-maximal response (EC50) is 10.8 µM.

For `CC[C@H](C)[C@H](NC(=O)[C@H](CCCCN)NC(=O)[C@H](CCCNC(=N)N)NC(=O)[C@H](CCSC)NC(=O)[C@@H]1CCCN1C(=O)[C@@H](NC(=O)[C@H](CCSC)NC=O)[C@@H](C)O)C(=O)N[C@@H](CC(N)=O)C(=O)N1CCC[C@H]1C(=O)N[C@@H](CC(C)C)C(=O)N[C@@H](CCSC)C(=O)N[C@@H](CCCCN)C(=O)O` [MCT-2(1–12)] (For-MTPMRKINPLMK-OH), the concentration giving a half-maximal response (EC50) was 0.633 ± 0.153 µM.

`CC[C@H](C)[C@H](NC(=O)[C@H](CCCCN)NC(=O)[C@H](CCCNC(=N)N)NC(=O)[C@H](CCSC)NC(=O)[C@@H]1CCCN1C(=O)[C@@H](NC(=O)[C@H](CCSC)NC=O)[C@@H](C)O)C(=O)N[C@@H](CC(N)=O)C(=O)N1CCC[C@H]1C(=O)N[C@@H](CC(C)C)C(=O)N[C@@H](CCSC)C(=O)N[C@@H](CCCCN)C(=O)N[C@@H](CC(C)C)C(=O)O` [MCT-2(1–13)] (For-MTPMRKINPLMKL-OH): the midpoint of the response, the EC50, lay at 0.186 ± 0.0336 µM.

The molecule `CC[C@H](C)[C@H](NC(=O)[C@H](CC(C)C)NC(=O)[C@H](CCCCN)NC(=O)[C@H](CCSC)NC(=O)[C@H](CC(C)C)NC(=O)[C@@H]1CCCN1C(=O)[C@H](CC(N)=O)NC(=O)[C@@H](NC(=O)[C@H](CCCCN)NC(=O)[C@H](CCCNC(=N)N)NC(=O)[C@H](CCSC)NC(=O)[C@@H]1CCCN1C(=O)[C@@H](NC(=O)[C@H](CCSC)NC=O)[C@@H](C)O)[C@@H](C)CC)C(=O)O` [MCT-2(1–14)] (For-MTPMRKINPLMKLI-OH) had an EC50 of 0.0967 ± 0.0176 µM.

Regarding `CC[C@H](C)[C@H](NC(=O)[C@H](CC(C)C)NC(=O)[C@H](CCCCN)NC(=O)[C@H](CCSC)NC(=O)[C@H](CC(C)C)NC(=O)[C@@H]1CCCN1C(=O)[C@H](CC(N)=O)NC(=O)[C@@H](NC(=O)[C@H](CCCCN)NC(=O)[C@H](CCCNC(=N)N)NC(=O)[C@H](CCSC)NC(=O)[C@@H]1CCCN1C(=O)[C@@H](NC(=O)[C@H](C)NC=O)[C@@H](C)O)[C@@H](C)CC)C(=O)N[C@@H](CC(N)=O)C(=O)O` [[Ala^1]MCT-2] (For-ATPMRKINPLMKLIN-OH), the EC50 is > 10 µM.

`CC[C@H](C)[C@H](NC(=O)[C@H](CC(C)C)NC(=O)[C@H](CCCCN)NC(=O)[C@H](CCSC)NC(=O)[C@H](CC(C)C)NC(=O)[C@@H]1CCCN1C(=O)[C@H](CC(N)=O)NC(=O)[C@@H](NC(=O)[C@H](CCCCN)NC(=O)[C@H](CCCNC(=N)N)NC(=O)[C@H](CCSC)NC(=O)[C@@H]1CCCN1C(=O)[C@H](C)NC(=O)[C@H](CCSC)NC=O)[C@@H](C)CC)C(=O)N[C@@H](CC(N)=O)C(=O)O` [[Ala^2]MCT-2] (For-MAPMRKINPLMKLIN-OH) registered a concentration giving a half-maximal response (EC50) of 0.00061 ± 7e-05 µM.

The values are drawn from PMC8071274 (International Journal of Molecular Sciences, 2021).
